Measured values from patent US20250345447A1, “PHARMACEUTICAL COMPOSITION OF RECOMBINANT ANTI-HUMAN CLDN18.2 MONOCLONAL ANTIBODY-MMAE CONJUGATE” (CSPC MEGALITH BIOPHARMACEUTICAL CO., LTD., priority 2022, published 2025).
Blank lines part the entries; values can stand above or below the molecule they belong to.

How the values were obtained:
[1] = system: human pancreatic cancer Bxpc3-18.2; experiment: Bxpc3-18.2 nude mouse xenograft tumor model, gemcitabine as control; type: in vivo
Description: When the tumor grew to a volume of about 100 mm^3 (day 39 after inoculation), 48 animals with good tumor growth were selected and equally divided into 6 groups (day 0) according to the tumor volume, with 8 animals in each group. […] The tumor diameters were measured twice a week, the mice were weighed, and the data were recorded. The tumor growth was dynamically observed by measuring the tumor diameters at different times after administration. The experiment was ended on day 28, the mice were asphyxiated with carbon dioxide, and then the tumors were stripped off and weighed.

[2] = system: human gastric cancer NUGC-4-18.2; experiment: NUGC-4-18.2 nude mouse xenograft tumor model, cisplatin as control; details: 6 mg/kg i.v. qw×3, day 20
Description: 2) In this experiment, human gastric cancer NUGC-4-18.2 was selected to construct a nude mouse xenograft tumor model. When the tumor grew to a volume of about 120 mm^3 (day 6 after inoculation), 64 animals with good tumor growth were selected and equally divided into 8 groups (day 0) according to the tumor volume, with 8 animals in each group. […] The tumor diameters were measured twice a week, the mice were weighed, and the data were recorded. The change in the tumor growth was dynamically observed by measuring the tumor diameters at different times after administration. The experiment was ended on day 20, the animals were asphyxiated with carbon dioxide, and then the tumors were stripped off and weighed.

[3] = target: human CLDN18.2 (human) (UniProt P56856); experiment: flow cytometry on HEK293-human CLDN18.2 cells, four-parameter fit; given as ED50
[4] = target: T1, cynomolgus monkey CLDN18.2 (cynomolgus monkey, UniProt A0A2K5VVB4 1-261); experiment: flow cytometry on CHO-K1-cynomolgus monkey CLDN18.2 cells, four-parameter fit; given as ED50
T1 chain: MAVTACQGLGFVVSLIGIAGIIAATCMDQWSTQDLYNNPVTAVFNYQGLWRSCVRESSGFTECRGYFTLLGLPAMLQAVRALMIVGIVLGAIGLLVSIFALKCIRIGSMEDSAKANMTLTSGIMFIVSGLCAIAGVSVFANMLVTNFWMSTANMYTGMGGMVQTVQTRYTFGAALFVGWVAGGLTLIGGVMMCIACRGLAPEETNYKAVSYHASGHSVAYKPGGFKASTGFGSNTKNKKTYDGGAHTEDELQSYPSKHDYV

[5] = target: mouse CLDN18.2 (mouse) (UniProt P56857); experiment: flow cytometry on HEK293-mouse CLDN18.2 cells, four-parameter fit; given as ED50

Molecule: Nc1ccn([C@@H]2O[C@H](CO)[C@@H](O)C2(F)F)c(=O)n1 [Gemcitabine, gemcitabine, reference compound]
tumor weight inhibition rate ([1]; 50 mg/kg i.v. biw×4, day 28): 51.0% | tumor growth compared with the solvent control group ([1]; SYJS001-ADC 2, 4 and 8 mg/kg single, GEM 50 mg/kg biw×4, P<0.01): significantly inhibited

Molecule: N.N.[Cl][Pt][Cl] [cisplatin, reference compound]
tumor weight inhibition rate [2]: 66.5%

EC50 [3]: 0.439 µg/mL | EC50 [4]: 0.648 µg/mL | EC50 [5]: 0.717 µg/mL
B1: SYJS001-ADC (recombinant anti-human CLDN18.2 monoclonal antibody-MMAE conjugate) (antibody, human IgG1, kappa, V domains shown)
VH: EVQLSESGGALVQPGESLRLSCAASGFTFSSYAMTWVRQAPGKGLEWVSSLSGSGRSTYYAASIKGRFTISRDNSKNTLYLQMSSLRAEDTAIYYCAKSLSYYHYYFDYWGQGTLVTVSS
VL: DIQLTQSPSFLSASVGDRVPITCRASQDISNYLAWYQQKPGKAPKLLIYSASTLQSGVPSRFSGSGSGTEFTLTISSLQPEDFASYHCQQVKTYPLTFGGGTKVEIKR
modifications: one molecule of MMAE conjugated via the linker NH2-PEG3-Val-Cit (LND1002) by an amide (isopeptide) bond to Q298 (i.e., Q295 according to Kabat numbering) of each heavy chain; mean DAR 2.0
notes: also called anti-CLDN18.2 antibody-drug conjugate SYJS001-ADC
